According to patent US6472348B1, “Pyridone derivatives and herbicides” (Kumiai Chemical Industry Co., Ltd., priority 1996, dated 2002):

Columns and labels:
[1] = test system: monochoria (Mo); experiment: Test Example 1: herbicidal effects by paddy field soil treatment; assay type: in vivo; conditions: 100 g of the active ingredient per 10 ares, 21st day after the application, index 0-5 of Table 47;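 also: grade of growth control; 5 = at least 90%; 4 = 70 to 90%; 3 = 50 to 70%; 2 = 30 to 50%; 1 = 10 to 30%; 0 = under 10%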
How it was run: (§1)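 Flooded paddy-soil pots (3 cm water) sown after puddling/leveling; treatment 100 g a.i./10 ares; greenhouse culture; herbicidal effect rated visually on a scoring scale at 21 d post-application.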

[2] = test system: bulrush (Sc); experiment: as above; assay type: in vivo; conditions: 100 g of the active ingredient per 10 ares, 21st day after the application, index 0-5 of Table 47;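 also: grade of growth control; 5 = at least 90%; 4 = 70 to 90%; 3 = 50 to 70%; 2 = 30 to 50%; 1 = 10 to 30%; 0 = under 10%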
How it was run: as §1

[3] = test system: barnyardgrass (Ec); experiment: as above; assay type: in vivo; conditions: 100 g of the active ingredient per 10 ares, 21st day after the application, index 0-5 of Table 47;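 also: grade of growth control; 5 = at least 90%; 4 = 70 to 90%; 3 = 50 to 70%; 2 = 30 to 50%; 1 = 10 to 30%; 0 = under 10%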
How it was run: as §1

[4] = test system: rice flatsedge (Ci); experiment: Test Example 2: herbicidal effects by upland field soil treatment; assay type: in vivo; conditions: 100 g of the active ingredient per 10 ares;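 also: grade of growth control; 5 = at least 90%; 4 = 70 to 90%; 3 = 50 to 70%; 2 = 30 to 50%; 1 = 10 to 30%; 0 = under 10%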
Excerpt: (§2) (Test on Herbicidal Effects by Upland Field Soil Treatment)

[5] = test system: Digitaria ciliaris (Di); experiment: as above; assay type: in vivo; conditions: 100 g of the active ingredient per 10 ares
Excerpt: as §2

[6] = test system: wheat (Tr); experiment: Test Example 5: crop plant selectivity by upland field soil treatment (wheat), phytotoxicity; assay type: in vivo; design: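 grade of crop injury; 5 = at least 90%; 4 = 70 to 90%; 3 = 50 to 70%; 2 = 30 to 50%; 1 = 10 to 30%; 0 = under 10%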; conditions: 21st day after application
How it was run: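 Seeds sown in pots of sand and covered with soil. Soil treatment applied. Plants cultured in a greenhouse. Effects rated by standard scale after 21 days.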

[7] = test system: wheat (Tr); experiment: Test Example 9: crop plant selectivity by upland field foliage treatment (wheat), phytotoxicity; conditions: dose 1.6 g ai/10a, 14th day after treatment
How it was run: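 Read-out: weed control and wheat injury, rated by a defined scoring standard 14 days after foliar application.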

[8] = test system: slender amaranth (Am); experiment: Test Example 7: crop plant selectivity by upland field soil treatment (corn), herbicidal effects; assay type: in vivo; design: scale not given here; conditions: 21st day after application
How it was run: (§3)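 Seeds of corn and of each weed species are sown in a pot of sand and covered with soil. The compound is applied, and the pots are kept in a greenhouse. On the 21st day, weed control and crop injury are judged by set criteria.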

[9] = test system: China jute (Ab); experiment: as above; assay type: in vivo; design: scale not given here; conditions: 21st day after application
How it was run: as §3

[10] = test system: pale smartweed (Po); experiment: as above; assay type: in vivo; design: scale not given here; conditions: 21st day after application
How it was run: as §3

[11] = test system: green foxtail (Se); experiment: as above; assay type: in vivo; design: scale not given here; conditions: 21st day after application
How it was run: as §3

[12] = test system: common lambsquarters (Ch); experiment: as above; assay type: in vivo; design: scale not given here; conditions: 21st day after application
How it was run: as §3

[13] = evaluated on the 21st day after application
[14] = 21st day after the application, index 0-5 of Table 47

Row | SMILES | Herbicidal effects Mo [1] | Herbicidal effects Sc [2] | Herbicidal effects Ec [3] | Herbicidal effects Ci [4, 13] | Herbicidal effects Di [5, 13] | Phytotoxicity Tr ([6]; dose 1.6 g ai/10a) | Phytotoxicity Tr ([6]; dose 6.3 g ai/10a) | Phytotoxicity Tr [7] | Herbicidal effects Am ([8]; dose 1.6 g ai/10a) | Herbicidal effects Am ([8]; dose 6.3 g ai/10a) | Herbicidal effects Ab ([9]; dose 1.6 g ai/10a) | Herbicidal effects Ab ([9]; dose 6.3 g ai/10a) | Herbicidal effects Po ([10]; dose 1.6 g ai/10a) | Herbicidal effects Po ([10]; dose 6.3 g ai/10a) | Herbicidal effects Se ([11]; dose 1.6 g ai/10a) | Herbicidal effects Se ([11]; dose 6.3 g ai/10a) | Herbicidal effects Ch ([12]; dose 1.6 g ai/10a) | Herbicidal effects Ch ([12]; dose 6.3 g ai/10a) | Herbicidal effects Ci [4, 14] | Herbicidal effects Di [5, 14]
1 | C#CC(C)Oc1cc(Cl)cc(F)c1-c1ccc(C(F)(F)F)n(C)c1=O (centres unmarked) [1′-5] | 5 | 5 | 5 | 5 | 5 | 1 | 1 | 1 | 5 | 5 | 5 | 5 | 5 | 5 | 4 | 5 | 5 | 5 | – | –
2 | C#CCSc1cc(-c2ccc(C(F)(F)F)n(C)c2=O)c(F)cc1Cl [1-44] | 5 | 5 | 5 | – | – | – | 1 | 2 | – | 5 | – | 5 | – | 5 | – | 5 | – | 5 | 5 | 5
3 | Cn1c(C(F)(F)F)ccc(-c2c(F)cc(Cl)c3oc(CO)cc23)c1=O [Compound No. 4-5, 3-(7-chloro-5-fluoro-2-hydroxymethylbenzofuran-4-yl)-1-methyl-6-trifluoromethyl-2-(1H)-pyridone] | 5 | 5 | 5 | 5 | 5 | – | 1 | 2 | – | 5 | – | 5 | – | 5 | – | 5 | – | 5 | – | –
4 | CCc1cc2c(Cl)cc(F)c(-c3ccc(C(F)(F)F)n(C)c3=O)c2o1 [Compound 5-2] | 5 | 5 | 5 | 5 | 5 | – | 1 | 2 | – | 5 | – | 5 | – | 5 | – | 5 | – | 5 | – | –
5 | Cc1cc2c(-c3ccc(C(F)(F)F)n(C)c3=O)c(F)cc(Cl)c2o1 [Compound 4-1] | 5 | 5 | 5 | 5 | 5 | 1 | 2 | 2 | 5 | 5 | 5 | 5 | 5 | 5 | 5 | 5 | 5 | 5 | – | –
6 | Cn1c(C(F)(F)F)ccc(-c2cc(OCCCl)c(Cl)cc2F)c1=O [1-171] | 5 | 5 | 5 | 5 | 5 | – | 1 | 2 | – | 5 | – | 5 | – | 5 | – | 5 | – | 5 | – | –
7 | CCc1cc2c(-c3ccc(C(F)(F)F)n(C)c3=O)c(F)cc(Cl)c2o1 [Compound 4-2] | 5 | 5 | 5 | 5 | 5 | 1 | – | 2 | 5 | 5 | 5 | 5 | 5 | 5 | 5 | 5 | 5 | 5 | – | –
8 | CCCC(=O)c1cc(-c2ccc(C(F)(F)F)n(C)c2=O)c(F)cc1Cl [Compound No. 1-194, 3-[4-chloro-2-fluoro-5-(1-oxobutyl)phenyl]-1-methyl-6-trifluoromethyl-2(1H)-pyridone] | 5 | 5 | 5 | 5 | 5 | – | 1 | 1 | – | 5 | – | 5 | – | 5 | – | 5 | – | 5 | – | –
